Data taken from ChEMBL document CHEMBL1201862, “PubChem BioAssay data set” (2004).
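Assay format: 96-well plates, 48-hour exposure. At the GI50, growth is halved.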 Active and inactive are the calls of the source. Cut-off read from the data, not from the text of the source: active = GI50 up to about 1.1 µM and inactive = higher.

Assays:
Assay in all cases: NCI-60 cell line screen, 48 h
NCI-H522 = tested on: NCI-H522
OVCAR-8 = tested on: OVCAR-8
SW-620 = tested on: SW-620
SF-268 = tested on: SF-268
SN12C = tested on: SN12C
UO-31 = tested on: UO-31
SF-539 = tested on: SF-539
HOP-92 = tested on: HOP-92
HOP-62 = tested on: HOP-62
M14 = tested on: M14
786-0 = tested on: 786-0
NCI-H226 = tested on: NCI-H226
U-251 = tested on: U-251
K562 = tested on: K562
HT-29 = tested on: HT-29

SMILES | GI50 (NCI-H522) | GI50 (OVCAR-8) | GI50 (SW-620) | GI50 (SF-268) | GI50 (SN12C) | GI50 (UO-31) | GI50 (SF-539) | GI50 (HOP-92) | GI50 (HOP-62) | GI50 (M14) | GI50 (786-0) | GI50 (NCI-H226) | GI50 (U-251) | GI50 (K562) | GI50 (HT-29)
CC(=O)OC1(C#N)CC2OC1C1C2N1C(=O)OC(C)(C)C (centres undefined) | > 100 µM (inactive) | > 100 µM (inactive) | > 100 µM (inactive) | > 100 µM (inactive) | > 100 µM (inactive) | > 100 µM (inactive) | > 100 µM (inactive) | > 100 µM (inactive) | > 100 µM (inactive) | > 100 µM (inactive) | > 100 µM (inactive) | > 100 µM (inactive) | > 100 µM (inactive) | > 100 µM (inactive) | –
O=c1cc2ccccc2nn1Cc1cccc(Cl)c1 | – | 73.3 µM (inactive) | 92.5 µM (inactive) | 90.2 µM (inactive) | 97.9 µM (inactive) | 37.5 µM (inactive) | > 100 µM (inactive) | > 100 µM (inactive) | > 100 µM (inactive) | > 100 µM (inactive) | > 100 µM (inactive) | 57.1 µM (inactive) | > 100 µM (inactive) | 32.4 µM (inactive) | > 100 µM (inactive)
COc1nc(NC2OC(COC(C)=O)C(OC(C)=O)C(OC(C)=O)C2OC(C)=O)c(/N=C(\C)C(C)=O)c(=O)n1C (centres undefined) | – | > 100 µM (inactive) | > 100 µM (inactive) | – | > 100 µM (inactive) | > 100 µM (inactive) | > 100 µM (inactive) | > 100 µM (inactive) | > 100 µM (inactive) | > 100 µM (inactive) | > 100 µM (inactive) | > 100 µM (inactive) | > 100 µM (inactive) | > 100 µM (inactive) | > 100 µM (inactive)
CCN(CC)CCCC(C)Nc1c(Sc2cnc3cc(Cl)ccc3c2NC(C)CCCN(CC)CC)cnc2cc(Cl)ccc12 (centres undefined) | 1.73 µM (inactive) | 1.69 µM (inactive) | 1.58 µM (inactive) | 2.02 µM (inactive) | 1.88 µM (inactive) | 21.1 µM (inactive) | – | 1.96 µM (inactive) | – | 1.81 µM (inactive) | 1.54 µM (inactive) | 1.76 µM (inactive) | 1.63 µM (inactive) | 1.55 µM (inactive) | 1.65 µM (inactive)
CSc1c(C)c(C)nn1-c1ccccc1 | > 100 µM (inactive) | > 100 µM (inactive) | > 100 µM (inactive) | > 100 µM (inactive) | > 100 µM (inactive) | > 100 µM (inactive) | > 100 µM (inactive) | – | – | > 100 µM (inactive) | > 100 µM (inactive) | – | > 100 µM (inactive) | > 100 µM (inactive) | > 100 µM (inactive)
CCOC(=O)C1C(=S)NC(=O)C1C#N (centres undefined) | > 100 µM (inactive) | > 100 µM (inactive) | > 100 µM (inactive) | > 100 µM (inactive) | > 100 µM (inactive) | > 100 µM (inactive) | > 100 µM (inactive) | > 100 µM (inactive) | > 100 µM (inactive) | > 100 µM (inactive) | > 100 µM (inactive) | – | > 100 µM (inactive) | > 100 µM (inactive) | > 100 µM (inactive)
CC(C)(C)c1cc2nc(c1)C(C(F)(F)F)(C(F)(F)F)OB(Br)OC2(C(F)(F)F)C(F)(F)F | – | < 0.01 µM (active) | < 0.01 µM (active) | 3.01 µM (inactive) | 0.173 µM (active) | 0.292 µM (active) | 0.316 µM (active) | – | 0.0367 µM (active) | 0.0209 µM (active) | 0.115 µM (active) | – | 0.084 µM (active) | 0.0434 µM (active) | 0.156 µM (active)
COc1ccc(-c2cc(=O)c3ccc(O)cc3o2)c(OC)c1OC | 25.4 µM (inactive) | – | 48 µM (inactive) | 41.3 µM (inactive) | 82.8 µM (inactive) | – | 46 µM (inactive) | 82.2 µM (inactive) | 92.3 µM (inactive) | 72.9 µM (inactive) | 79.3 µM (inactive) | > 100 µM (inactive) | – | 29.6 µM (inactive) | 60.4 µM (inactive)
